Patent US6737383B1, “Herbicidal oxadiazolidines” (priority 1999, dated 2004)

Tests used:
[1] = tested on: bedstraw; experiment: Test B pre/postemergence bedstraw; assay type: in vivo, Galium aparine
In short: (§1)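 Herbicidal effect was estimated by eye on a ten-point control scale after plants spent twelve to sixteen days in a greenhouse following soil or foliar treatment. Foliar sprays targeted plants at one to four leaves; all doses were formulated in a non-phytotoxic solvent with surfactant.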

[2] = tested on: blackgrass; experiment: Test B pre/postemergence blackgrass; assay type: in vivo, Alopecurus myosuroides
In short: as §1

[3] = tested on: surinam grass; experiment: Test B pre/postemergence surinam grass; assay type: in vivo, Brachiaria decumbens
In short: as §1

[4] = tested on: cocklebur; experiment: Test B pre/postemergence cocklebur; assay type: in vivo, Xanthium strumarium
In short: as §1

[5] = tested on: corn; experiment: Test B pre/postemergence corn; assay type: in vivo, Zea mays
In short: as §1

[6] = tested on: crabgrass; experiment: Test B pre/postemergence crabgrass; assay type: in vivo, Digitaria sanguinalis
In short: as §1

[7] = tested on: giant foxtail; experiment: Test B pre/postemergence giant foxtail; assay type: in vivo, Setaria faberii
In short: as §1

[8] = tested on: morningglory; experiment: Test B pre/postemergence morningglory; assay type: in vivo, Ipomoea hederacea
In short: as §1

[9] = tested on: pigweed; experiment: Test B pre/postemergence pigweed; assay type: in vivo, Amaranthus retroflexus
In short: as §1

[10] = tested on: rape; experiment: Test B pre/postemergence rape; assay type: in vivo, Brassica napus
In short: as §1

[11] = tested on: soybean; experiment: Test B pre/postemergence soybean; assay type: in vivo, Glycine max
In short: as §1

[12] = tested on: sugar beet; experiment: Test B pre/postemergence sugar beet; assay type: in vivo, Beta vulgaris
In short: as §1

[13] = tested on: velvetleaf; experiment: Test B pre/postemergence velvetleaf; assay type: in vivo, Abutilon theophrasti
In short: as §1

[14] = tested on: wheat; experiment: Test B pre/postemergence wheat; assay type: in vivo, Triticum aestivum
In short: as §1

[15] = tested on: wild oat; experiment: Test B pre/postemergence wild oat; assay type: in vivo, Avena fatua
In short: as §1

[16] = tested on: purple nutsedge; experiment: Test B pre/postemergence purple nutsedge; assay type: in vivo, Cyperus rotundus
In short: as §1

[17] = tested on: rice; experiment: Test B flood test rice; assay type: in vivo, Oryza sativa
In short: (§2)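 Plants were grown to the 2-leaf stage before treatment with test chemical, then held in a greenhouse for twelve to sixteen days. Injury was visually rated against untreated controls on a 0–10 scale, where 0 is no effect and 10 is complete control.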

[18] = tested on: smallflower flatsedge; experiment: Test B flood test smallflower flatsedge; assay type: in vivo, Cyperus difformis
In short: as §2

[19] = tested on: duck salad; experiment: Test B flood test duck salad; assay type: in vivo, Heteranthera limosa
In short: as §2

[20] = tested on: bamyardgrass; experiment: Test B flood test barnyardgrass; assay type: in vivo, Echinochloa crus-galli
In short: as §2

[21] = Postemergence, Rate 250 g/ha, scale 0 to 10
[22] = Preemergence, Rate 62 g/ha, scale of 0 to 10 where 0 is no effect and 10 is complete control
[23] = Preemergence, Rate 125 g/ha, scale 0 to 10, 0 is no effect, 10 is complete control
[24] = Postemergence, Rate 125 g/ha, scale 0 to 10, 0 is no effect, 10 is complete control
[25] = Postemergence, Rate 500 g/ha, scale 0 to 10, 0 is no effect, 10 is complete control
[26] = Preemergence, Rate 250 g/ha, scale 0 to 10, 0 is no effect, 10 is complete control
[27] = Preemergence, Rate 500 g/ha, scale of 0 to 10 where 0 is no effect and 10 is complete control
[28] = Rate 62 g/ha, Postemergence, scale 0 to 10, 0 no effect, 10 complete control
[29] = Rate 62 g/ha, flood test species, Pre-emergence, visual evaluation after twelve to sixteen days
[30] = Rate 125 g/ha, under heading Pre-emergence, flood test species, visual evaluation after twelve to sixteen days
[31] = Rate 250 g/ha, Pre-emergence (flood test species), scale 0 to 10, 0 is no effect, 10 is complete control
[32] = Rate 500 g/ha, Pre-emergence section of Table B, 0 to 10 scale (0 no effect, 10 complete control)

CC(C)N(C(=O)n1oc(=O)n(CC2=CCCCC2)c1=O)c1ccccc1 [Compound 496]
Bedstraw plant response rating [1, 21]: 0 | Plant response rating, Bedstraw [1, 22]: 0 | Bedstraw plant response rating [1, 23]: 0 | Blackgrass plant response rating [2, 24]: 3 | Blackgrass plant response rating [2, 21]: 3 | Plant response rating, Blackgrass [2, 25]: 5 | Plant response rating, Blackgrass [2, 22]: 0 | Blackgrass plant response rating [2, 23]: 0 | Blackgrass plant response rating [2, 26]: 2 | Blackgrass plant response rating [2, 27]: 2 | Blackgrass plant response rating [2, 28]: 2 | B. signalgrass plant response rating [3, 24]: 0 | B. signalgrass plant response rating ([3]; Postemergence, Rate 250 g/ha, scale 0 to 10, 0 no effect, 10 complete control): 0 | Plant response rating, B. signalgrass [3, 25]: 4 | Plant response rating, B. signalgrass [3, 22]: 0 | B. signalgrass plant response rating [3, 23]: 0 | B. signalgrass plant response rating [3, 26]: 1 | B. signalgrass plant response rating ([3]; Preemergence, Rate 500 g/ha, scale 0 to 10, 0 is no effect, 10 is complete control): 8 | B. signalgrass plant response rating [3, 28]: 0 | Cocklebur plant response rating [4, 24]: 0 | Cocklebur plant response rating [4, 21]: 0 | Plant response rating, Cocklebur [4, 25]: 1 | Plant response rating, Cocklebur [4, 22]: 0 | Cocklebur plant response rating [4, 23]: 0 | Cocklebur plant response rating [4, 26]: 0 | Cocklebur plant response rating [4, 27]: 0 | Cocklebur plant response rating [4, 28]: 0 | Corn plant response rating [5, 24]: 0 | Corn plant response rating [5, 21]: 0 | Plant response rating, Corn [5, 25]: 0 | Plant response rating, Corn [5, 22]: 0 | Corn plant response rating [5, 23]: 0 | Corn plant response rating [5, 27]: 0 | Corn plant response rating [5, 28]: 0 | Crabgrass plant response rating [6, 24]: 0 | Crabgrass plant response rating [6, 21]: 0 | Plant response rating, Crabgrass [6, 25]: 2 | Plant response rating, Crabgrass [6, 22]: 0 | Crabgrass plant response rating [6, 23]: 4 | Crabgrass plant response rating [6, 27]: 9 | Crabgrass plant response rating [6, 28]: 0 | Giant foxtail plant response rating [7, 24]: 0 | Plant response rating, Giant foxtail [7, 25]: 0 | Plant response rating, Giant foxtail [7, 22]: 2 | Giant foxtail plant response rating [7, 23]: 8 | Giant foxtail plant response rating [7, 27]: 9 | Giant foxtail plant response rating [7, 28]: 0 | Morningglory plant response rating [8, 24]: 8 | Plant response rating, Morningglory [8, 25]: 8 | Plant response rating, Morningglory [8, 22]: 0 | Morningglory plant response rating [8, 23]: 0 | Morningglory plant response rating [8, 27]: 0 | Morningglory plant response rating [8, 28]: 8 | Redroot pigweed plant response rating [9, 24]: 0 | Plant response rating, Redroot pigweed [9, 25]: 3 | Plant response rating, Redroot pigweed [9, 22]: 0 | Redroot pigweed plant response rating [9, 23]: 0 | Redroot pigweed plant response rating [9, 27]: 8 | Redroot pigweed plant response rating [9, 28]: 0 | Rape plant response rating [10, 24]: 0 | Plant response rating, Rape [10, 25]: 0 | Plant response rating, Rape [10, 22]: 0 | Rape plant response rating [10, 23]: 0 | Rape plant response rating [10, 27]: 0 | Rape plant response rating [10, 28]: 0 | Soybean plant response rating [11, 24]: 3 | Plant response rating, Soybean [11, 25]: 3 | Plant response rating, Soybean [11, 22]: 0 | Soybean plant response rating [11, 23]: 0 | Soybean plant response rating [11, 27]: 0 | Soybean plant response rating [11, 28]: 2 | Sugarbeets plant response rating [12, 24]: 0 | Plant response rating, Sugarbeets [12, 25]: 0 | Plant response rating, Sugarbeets [12, 22]: 0 | Sugarbeets plant response rating [12, 23]: 0 | Sugarbeets plant response rating [12, 27]: 0 | Sugarbeets plant response rating [12, 28]: 0 | Velvetleaf plant response rating [13, 24]: 0 | Plant response rating, Velvetleaf [13, 25]: 0 | Plant response rating, Velvetleaf [13, 22]: 0 | Velvetleaf plant response rating [13, 23]: 0 | Velvetleaf plant response rating [13, 27]: 0 | Velvetleaf plant response rating [13, 28]: 0 | Wheat plant response rating [14, 24]: 0 | Plant response rating, Wheat [14, 25]: 3 | Plant response rating, Wheat [14, 22]: 0 | Wheat plant response rating [14, 23]: 0 | Wheat plant response rating [14, 27]: 0 | Wheat plant response rating [14, 28]: 0 | Wild oats plant response rating [15, 24]: 0 | Plant response rating, Wild oats [15, 25]: 2 | Plant response rating, Wild oats [15, 22]: 0 | Wild oats plant response rating [15, 23]: 0 | Wild oats plant response rating [15, 27]: 0 | Wild oats plant response rating [15, 28]: 0 | Nutsedge plant response rating [16, 24]: 0 | Plant response rating, Nutsedge [16, 25]: 0 | Plant response rating, Nutsedge [16, 22]: 0 | Nutsedge plant response rating [16, 23]: 0 | Nutsedge plant response rating [16, 27]: 0 | Nutsedge plant response rating [16, 28]: 0 | Plant response rating, Rice (0 to 10 scale, 0 is no effect, 10 is complete control) [17, 29]: 0 | Rice plant response rating (0 to 10 scale, 0 is no effect, 10 is complete control) [17, 30]: 0 | Rice plant response rating [17, 31]: 0 | Rice plant response rating [17, 32]: 0 | Plant response rating, S. Flatsedge (0 to 10 scale, 0 is no effect, 10 is complete control) [18, 29]: 0 | S. Flatsedge plant response rating (0 to 10 scale, 0 is no effect, 10 is complete control) [18, 30]: 0 | S. Flatsedge plant response rating [18, 31]: 0 | S. Flatsedge plant response rating [18, 32]: 0 | Plant response rating, Ducksalad (0 to 10 scale, 0 is no effect, 10 is complete control) [19, 29]: 0 | Ducksalad plant response rating (0 to 10 scale, 0 is no effect, 10 is complete control) [19, 30]: 0 | Ducksalad plant response rating [19, 31]: 0 | Ducksalad plant response rating [19, 32]: 0 | Plant response rating, Barnyardgrass (0 to 10 scale, 0 is no effect, 10 is complete control) [20, 29]: 0 | Barnyardgrass plant response rating (0 to 10 scale, 0 is no effect, 10 is complete control) [20, 30]: 0 | Barnyardgrass plant response rating [20, 31]: 0 | Barnyardgrass plant response rating [20, 32]: 0
